Assay results: patent US20260159503A1, “1,2,3-TRIAZOLE LINKER-CONTAINING COMPOUNDS” (HIGH POINT UNIVERSITY, priority 2024, published 2026)

What was measured:
human D3R = target: T1, human D3R (Homo sapiens, UniProt P35462); assay: DiscoverX PathHunter β-arrestin recruitment assay, D3R; assay type: cell-based; settings: triazole; antagonist; read-out: potency, β-arrestin recruitment at the D3R
T1 construct: host or cells: CHO-K1
Description: (§1) Luminescence was measured on a Hamamatsu FDSS μCell reader.
(§2) Efficacy/antagonist % (Ant. %) values were obtained from nonlinear regression of meaned data obtained from at least three independent experiments with triplicate measures. Values are presented as means±SEM.

human D2R long isoform = target: T2, human D2R long isoform (Homo sapiens, UniProt P14416); assay: DiscoverX PathHunter β-arrestin recruitment assay, D2R; assay type: cell-based; settings: triazole; antagonist; read-out: potency, β-arrestin recruitment at the D2R
T2 construct: host or cells: CHO-K1
Description: as §1, §2

T2 sequence (P14416 whole entry, canonical isoform): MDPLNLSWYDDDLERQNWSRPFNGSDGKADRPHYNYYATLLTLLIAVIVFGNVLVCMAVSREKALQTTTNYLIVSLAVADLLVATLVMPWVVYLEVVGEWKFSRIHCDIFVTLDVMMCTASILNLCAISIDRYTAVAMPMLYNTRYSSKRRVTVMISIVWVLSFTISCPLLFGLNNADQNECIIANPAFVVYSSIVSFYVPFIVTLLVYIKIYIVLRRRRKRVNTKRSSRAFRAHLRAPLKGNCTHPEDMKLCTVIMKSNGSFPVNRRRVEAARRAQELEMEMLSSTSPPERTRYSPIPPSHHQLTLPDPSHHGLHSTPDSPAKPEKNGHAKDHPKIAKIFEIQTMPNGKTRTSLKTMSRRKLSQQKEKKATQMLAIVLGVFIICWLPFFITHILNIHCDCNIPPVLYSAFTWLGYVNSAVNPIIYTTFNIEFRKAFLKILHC
T1 sequence (P35462 whole entry): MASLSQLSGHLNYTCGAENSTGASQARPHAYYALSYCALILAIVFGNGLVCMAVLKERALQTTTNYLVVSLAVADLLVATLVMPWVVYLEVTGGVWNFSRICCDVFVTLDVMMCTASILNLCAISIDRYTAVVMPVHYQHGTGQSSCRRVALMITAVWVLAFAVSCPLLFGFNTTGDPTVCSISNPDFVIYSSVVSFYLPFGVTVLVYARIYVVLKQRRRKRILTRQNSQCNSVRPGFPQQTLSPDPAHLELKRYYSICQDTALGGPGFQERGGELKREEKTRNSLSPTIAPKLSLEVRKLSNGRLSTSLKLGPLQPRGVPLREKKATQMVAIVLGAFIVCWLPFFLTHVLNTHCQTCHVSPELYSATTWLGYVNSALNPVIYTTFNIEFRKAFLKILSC

IC50 (human D3R): > 6 µM
IC50 (human D2R long isoform): > 6 µM
SMILES: Cc1cccc(-n2cc(CN3CCC(c4ccccc4)CC3)nn2)c1 [Compound 14, 4-phenyl-1-((1-(m-tolyl)-1H-1,2,3-triazol-4-yl)methyl)piperidine]
